Experimental data published in US8101774B2, “Ester derivatives and medicinal use thereof” (Japan Tobacco Inc., priority 2004, dated 2012).

Experiments:
[1] = target: T1, Microsomal triglyceride transfer protein (MTP) from human small intestine microsome (Homo sapiens, UniProt P55157); assay: Inhibition test of interliposomal triglyceride (TG) transfer activity by MTP; assay type: biochemical; settings: purified MTP from human small intestine microsome, 37° C., 1.5 hours
T1 construct: Human small intestine microsome was dialyzed against 10 mM phosphate buffer; tissue Tissue Transforming Technologies, Inc; host or cells: human small intestine microsome
Outline: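 DEAE-purified human small intestine MTP (50 μL of 20 μg/mL) incubated 1.5 hours at 37° C with ^14C-triolein donor and unlabelled acceptor SUV liposomes in pH 7.4 Tris buffer with 0.5% BSA. Donor removed on DEAE cellulose; acceptor radioactivity counted, blank-corrected against DMSO control, giving percent inhibition and IC50.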

[2] = Metabolic stability test in liver S9; assay type: in vitro ADME; settings: human liver S9 2 mg protein/mL, 37° C.
Procedure: Human liver S9 (final concentration: 2 mg protein/mL), was suspended in 100 mM potassium phosphate buffer (pH 7.4, containing β-nicotinamide adenine dinucleotide phosphate: 1.3 mM, D-glucose-6-phosphate: 3.3 mM, magnesium chloride: 3.3 mM, glucose-6-phosphate dehydrogenase: 0.4 U/mL). The suspension was mixed with a solution of a sample dissolved in DMSO. The solution was incubated at 37° C. for 0, 10 and 60 minutes, and an acetonitrile containing formic acid (final concentration: 0.1%) was added thereto. The solutions were centrifuged, and the concentration of the sample (unchanged form) in the supernatant was determined by high performance liquid chromatography/mass spectrometry (LC/MS). Based on the data obtained, remaining rate (%) was calculated according to the following equation. Remaining rate(%)=amount of sample 0, 10, or 60 minutes after incubation/amount of sample at zero time after incubation×100

[3] = Metabolic stability test in plasma; assay type: in vitro ADME; settings: 37° C.
Procedure: A sample dissolved in DMSO was added to plasma of human or animal species (mouse and hamster). The solutions were incubated at 37° C. for 0, 10 and 60 minutes, and acetonitrile containing formic acid (final concentration: 0.1%) was added thereto. The solutions were centrifuged, and the concentration of the sample (unchanged form) in the supernatant was determined by high performance liquid chromatography/mass spectrometry (LC/MS). Based on the data obtained, the remaining rate (%) was calculated according to the following equation. Remaining rate(%)=amount of sample 0, 10, or 60 minutes after incubation/amount of sample at zero time after incubation×100 With respect to the compounds obtained in Working Examples according to the present invention (Compounds 1-1 to 1-115, 2-1, 3-1, 3-2, and 4-1 to 4-4), the results of the remaining rate in human liver S9 and plasma are shown in Tables 28 to 32.

[4] = Stability test in buffer (pH 7.4); assay type: physicochemical; settings: 100 mM potassium phosphate buffer (pH 7.4):acetonitrile 7:3, 37° C.
Procedure: In the tables, Buf. remaining rate was determined by stability test in buffer (pH 7.4) as described below. A sample dissolved in DMSO was mixed with a mixed solution of 100 mM potassium phosphate buffer and acetonitrile in the ratio of 7:3 (v/v). The mixture was incubated at 37° C. for 0, 10, and 60 minutes, and acetonitrile containing formic acid (final concentration: 0.1%) was added thereto. The solution was centrifuged, and the concentration of the sample (unchanged form) in the supernatant was determined by high performance liquid chromatography/mass spectrometry (LC/MS). Based on the data obtained, Buf. remaining rate (%) was calculated according to the following equation. Buf. remaining rate(%)=amount of sample 0, 10, or 60 minutes after incubation/amount of sample at zero time after incubation×100

T1 sequence (P55157 19-894): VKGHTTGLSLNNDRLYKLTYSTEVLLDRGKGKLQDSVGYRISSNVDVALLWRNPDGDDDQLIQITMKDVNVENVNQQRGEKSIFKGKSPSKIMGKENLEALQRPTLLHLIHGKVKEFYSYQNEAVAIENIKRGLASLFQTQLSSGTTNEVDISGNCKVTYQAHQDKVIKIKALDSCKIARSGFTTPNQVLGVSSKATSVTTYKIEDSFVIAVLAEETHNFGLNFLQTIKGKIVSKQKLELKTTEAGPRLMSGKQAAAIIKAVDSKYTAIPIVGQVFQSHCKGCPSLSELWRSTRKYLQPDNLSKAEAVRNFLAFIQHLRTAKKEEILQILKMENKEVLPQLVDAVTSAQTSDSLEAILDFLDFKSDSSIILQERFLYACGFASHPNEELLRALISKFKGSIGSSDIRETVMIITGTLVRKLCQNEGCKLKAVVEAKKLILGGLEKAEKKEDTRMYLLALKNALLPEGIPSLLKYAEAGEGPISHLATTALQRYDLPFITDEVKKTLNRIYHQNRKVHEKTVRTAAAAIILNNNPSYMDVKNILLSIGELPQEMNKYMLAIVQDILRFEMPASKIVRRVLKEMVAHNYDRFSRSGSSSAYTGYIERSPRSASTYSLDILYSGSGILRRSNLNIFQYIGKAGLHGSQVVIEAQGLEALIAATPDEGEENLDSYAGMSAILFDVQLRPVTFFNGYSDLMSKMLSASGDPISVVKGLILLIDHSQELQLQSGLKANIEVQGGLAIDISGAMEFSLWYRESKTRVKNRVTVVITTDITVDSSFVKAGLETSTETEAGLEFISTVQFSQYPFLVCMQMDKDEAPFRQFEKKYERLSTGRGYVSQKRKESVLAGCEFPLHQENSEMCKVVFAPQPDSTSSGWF
T1 sequence (P07237 18-508 partner): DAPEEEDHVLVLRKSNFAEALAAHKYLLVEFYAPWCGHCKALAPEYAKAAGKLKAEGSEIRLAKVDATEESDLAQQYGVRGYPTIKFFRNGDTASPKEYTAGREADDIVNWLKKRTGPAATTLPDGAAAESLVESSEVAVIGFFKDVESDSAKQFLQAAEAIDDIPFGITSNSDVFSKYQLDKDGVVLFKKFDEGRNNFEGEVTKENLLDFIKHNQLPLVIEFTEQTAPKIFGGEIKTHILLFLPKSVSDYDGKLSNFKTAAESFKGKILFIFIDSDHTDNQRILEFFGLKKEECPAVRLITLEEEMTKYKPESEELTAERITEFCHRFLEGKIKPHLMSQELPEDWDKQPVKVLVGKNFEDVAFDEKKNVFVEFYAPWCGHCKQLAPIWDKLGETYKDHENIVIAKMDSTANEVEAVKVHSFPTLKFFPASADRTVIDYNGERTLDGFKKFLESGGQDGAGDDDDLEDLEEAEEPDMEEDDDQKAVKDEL

With `COC(=O)c1ccc(OC(=O)CCCc2ccc(NC(=O)c3ccccc3-c3ccc(C(F)(F)F)cc3)c(C(=O)N(C)C)c2)c(C)c1` [Compound 1-66, 4-[4-(3-dimethylcarbamoyl-4-{(4′-trifluoromethylbiphenyl-2-carbonyl)amino}phenyl)butyryloxy]-3-methylbenzoic acid methyl ester] the IC50 [1] was < 10 nM, the “Remaining rate in human liver S9 (%/10 min)” value ([2]; 10 min) was 3% and the “Remaining rate in human liver S9 (%/60 min)” value ([2]; 60 min) was 0%. For the same compound, the “Remaining rate in human plasma (%/60 min)” value [3] was 8%, the “Buf. remaining rate (%/10 min)” value ([4]; 10 min) was 101% and the “Buf. remaining rate (%/60 min)” value ([4]; 60 min) was 103%.
